# Reference: patent publication US20190375708A1 (VenatoRx Pharmaceuticals, Inc., priority 2018, published 2019)
# Key:
# [1] = In vitro cytotoxicity assay (MTT cell viability) in HepG2 cells; assay type: cell-based, human; conditions: human
# Procedure, shortened: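 Parental HepG2 cells in EMEM + 10% FBS were exposed to compounds (8 half-log dilutions, 30 μM to 1.0 nM) for 7 days at 37 °C, 5% CO2. MTT was then added for 3-4 h, formazan dissolved in DMSO and absorbance read at 492 nm; CC50 came from 4-parameter fits against vehicle controls.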
# [2] = tested on: HBV replication in HepAD38 cells; experiment: Anti-HBV replication assay in HepAD38 cells (QPCR of extracellular HBV DNA); assay type: cell-based, HBV (genotype D, serotype ayw); conditions: Hepatitis B virus, 168 h, 7 days incubation, extracellular HBV DNA by QPCR, read-out: Anti-HBV EC50
# Procedure, shortened: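 Compounds (1 log10 serial dilutions, […]) were left 7 days on tetracycline-free HepAD38 cultures, a HepG2 line with tet-controlled HBV genotype D. EC50 came from 4-parameter regression of percent inhibition versus vehicle, using supernatant HBV DNA copies/mL measured by QPCR.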
SMILES,CC50 at 7 days [1] [nM],EC50 [2] [nM]
"Cc1c(C(=O)Nc2ccnc(F)c2)c(C)n(C)c1C(=O)C(=O)NC1(C(F)(F)F)CCOCC1 [Example 271, N-(2-fluoropyridin-4-yl)-1,2,4-trimethyl-5-(2-oxo-2-((4-(trifluoromethyl)tetrahydro-2H-pyran-4-yl)amino)acetyl)-1H-pyrrole-3-carboxamide]",> 30000,< 50
Cc1cc(NC(=O)c2c(C)c(C(=O)C(=O)NC3CCN(c4ncccn4)CC3)n(C)c2C)ccc1F [Example 658],5000 to 30000,< 50
"Cc1cc(NC(=O)c2c(C)c(C(=O)C(=O)Nc3cccnc3)n3c2CCCC3)ccc1F [Example 739, N-(4-fluoro-3-methylphenyl)-2-methyl-3-(2-oxo-2-(pyridin-3-ylamino)acetyl)-5,6,7,8-tetrahydroindolizine-1-carboxamide]",> 30000,50 to 499
"Cc1cc(NC(=O)c2c(C)c(C(=O)C(=O)NC3(C)CCS(=O)(=O)CC3)n(C)c2C)ccc1F [Example 622, N-(4-fluoro-3-methylphenyl)-1,2,4-trimethyl-5-(2-((4-methyl-1,1-dioxidotetrahydro-2H-thiopyran-4-yl)amino)-2-oxoacetyl)-1H-pyrrole-3-carboxamide]",> 30000,< 50
"CCn1c(C)c(C(=O)Nc2ccc(F)c(C)c2)c(C)c1C(=O)C(=O)NC(C)(C)CO [Example 98, 1-ethyl-N-(4-fluoro-3-methylphenyl)-5-(2-((1-hydroxy-2-methylpropan-2-yl)amino)-2-oxoacetyl)-2,4-dimethyl-1H-pyrrole-3-carboxamide]",> 30000,< 50
"COC(=O)[C@@H](NC(=O)C(=O)c1c(C)c(C(=O)Nc2ccc(F)c(C)c2)c(C)n1C)[C@@H](C)O [Example 27, methyl (2-(4-((4-fluoro-3-methylphenyl)carbamoyl)-1,3,5-trimethyl-1H-pyrrol-2-yl)-2-oxoacetyl)-L-threoninate]",> 30000,> 1000
"Cc1cc(NC(=O)c2c(C)c(C(=O)C(=O)NC34CC5CC(CC3C5)C4)n(C)c2C)ccc1F [Example 18, N-(4-fluoro-3-methylphenyl)-5-(2-(((2R,3as,5S,6as)-hexahydro-2,5-methanopentalen-3a(1H)-yl)amino)-2-oxoacetyl)-1,2,4-trimethyl-1H-pyrrole-3-carboxamide]",> 30000,< 50
"CC[C@H](C)NC(=O)C1(NC(=O)C(=O)c2c(C)c(C(=O)Nc3ccc(F)c(C)c3)c(C)n2C)CCOCC1 [Example 682, (S)-5-(2-((4-(sec-butylcarbamoyl)tetrahydro-2H-pyran-4-yl)amino)-2-oxoacetyl)-N-(4-fluoro-3-methylphenyl)-1,2,4-trimethyl-1H-pyrrole-3-carboxamide]",> 30000,< 50
"Cc1noc(C2(NC(=O)C(=O)c3cc(C(=O)Nc4ccc(F)c(C)c4)c4n3CCCC4)CC2)n1 [Example 418, N-(4-fluoro-3-methylphenyl)-3-(2-((1-(3-methyl-1,2,4-oxadiazol-5-yl)cyclopropyl)amino)-2-oxoacetyl)-5,6,7,8-tetrahydroidolizine-1-carboxamide]",> 30000,50 to 499
"Cc1cc(NC(=O)C(=O)c2c(C)c(C(=O)Nc3ccc(F)c(C)c3)c(C)n2C)ccc1F [Example 216, N-(4-fluoro-3-methylphenyl)-5-(2-((4-fluoro-3-methylphenyl)amino)-2-oxoacetyl)-1,2,4-trimethyl-1H-pyrrole-3-carboxamide]",5000 to 30000,< 50
Cc1c(C(=O)NC2CCCC2)c2n(c1C(=O)C(=O)NC(C)(C)CO)CCCC2 [Example 754],> 30000,50 to 499
"CCn1c(C)c(C(=O)Nc2ccc(F)c(C)c2)c(C)c1C(=O)C(=O)N[C@H]1CC[C@@H](O)CC1 [Example 284, 1-ethyl-N-(4-fluoro-3-methylphenyl)-5-(2-(((1s,4s)-4-hydroxycyclohexyl)amino)-2-oxoacetyl)-2,4-dimethyl-1H-pyrrole-3-carboxamide]",> 30000,< 50
"Cc1c(C(=O)Nc2cc(F)c(F)c(F)c2)c(C)n(C)c1C(=O)C(=O)Nc1ccc(F)nc1 [Example 321, 5-(2-((6-fluoropyridin-3-yl)amino)-2-oxoacetyl)-1,2,4-trimethyl-N-(3,4,5-trifluorophenyl)-1H-pyrrole-3-carboxamide]",5000 to 30000,< 50
"Cc1cc(NC(=O)c2c(C)c(C(=O)C(=O)NC3(C)CC(F)(F)C3)n(C)c2C)ccc1F [Example 238, 5-(2-((3,3-difluoro-1-methylcyclobutyl)amino)-2-oxoacetyl)-N-(4-fluoro-3-methylphenyl)-1,2,4-trimethyl-1H-pyrrole-3-carboxamide]",> 30000,< 50
"Cc1cc(NC(=O)c2c(C)c(C(=O)C(=O)N[C@H]3COC[C@@H]3O)n(C)c2C)ccc1F [Example 128, N-(4-fluoro-3-methylphenyl)-5-(2-(((3S,4R)-4-hydroxytetrahydrofuran-3-yl)amino)-2-oxoacetyl)-1,2,4-trimethyl-1H-pyrrole-3-carboxamide]",> 30000,< 50
"Cc1cc(NC(=O)c2c(Cl)c(C(=O)C(=O)NCc3cnc(N)s3)n3c2CCC3)cnc1F [Example 734, 5-(2-(((2-aminothiazol-5-yl)methyl)amino)-2-oxoacetyl)-6-chloro-N-(6-fluoro-5-methylpyridin-3-yl)-2,3-dihydro-1H-pyrrolizine-7-carboxamide]",> 30000,< 50
"Cc1[nH]c(C(=O)C(=O)NC(C)(C)C)c(C)c1C(=O)Nc1ccc(F)c(Cl)c1 [Example 3, 5-(2-(tert-butylamino)-2-oxoacetyl)-N-(3-chloro-4-fluorophenyl)-2,4-dimethyl-1H-pyrrole-3-carboxamide]",5000 to 30000,< 50
"Cc1cc(NC(=O)c2c(C)c(C(=O)C(=O)NC3C4CC5CC(C4)CC3C5)n(C)c2C)ccc1F (centres unmarked) [Example 17, 5-(2-(((1r,3r)-adamantan-2-yl)amino)-2-oxoacetyl)-N-(4-fluoro-3-methylphenyl)-1,2,4-trimethyl-1H-pyrrole-3-carboxamide]",500 to 4990,< 50
CCn1c(C)c(C(=O)Nc2ccc(F)c(C)c2)c(C)c1C(=O)C(=O)N[C@]1(C)CC[C@@H](O)CC1 [Example 696],> 30000,< 50
"Cc1cc(NC(=O)c2c(C)c(C(=O)C(=O)N[C@H]3CCC[C@H]3O)n(C)c2C)ccc1F [Example 94, N-(4-fluoro-3-methylphenyl)-5-(2-(((1S,2R)-2-hydroxycyclopentyl)amino)-2-oxoacetyl)-1,2,4-trimethyl-1H-pyrrole-3-carboxamide]",> 30000,< 50
"Cc1cc(NC(=O)c2cc(C(=O)C(=O)N[C@H](CO)[C@@H](C)O)n3c2CCCC3)ccc1F [Example 433, 3-(2-(((2R,3R)-1,3-dihydroxybutan-2-yl)amino)-2-oxoacetyl)-N-(4-fluoro-3-methylphenyl)-5,6,7,8-tetrahydroindolizine-1-carboxamide]",> 30000,500 to 1000
"Cc1c(C(=O)Nc2nccs2)c2n(c1C(=O)C(=O)NC(C)(C)CO)CCCC2 [Example 759, 3-(2-((1-hydroxy-2-methylpropan-2-yl)amino)-2-oxoacetyl)-2-methyl-N-(thiazol-2-yl)-5,6,7,8-tetrahydroindolizine-1-carboxamide]",> 30000,50 to 499
